The record followed here is US12281122B1, “PI3K inhibitors” (Cogent Biosciences, Inc., priority 2023, dated 2025).

As usually defined, the IC50 is the concentration that gives 50% inhibition.

The target of one test is PI3Kα (Homo sapiens, UniProt P42336). Nature of the test: PI3Kα enzyme assay (Transcreener ADP2 TR-FRET Red Assay). Type of test: biochemical. As to conditions: purified recombinant full-length protein; 2 hours pre-incubation with compound; read-out: PI3Kα WT IC50. In a few lines:
(§1)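 Purified recombinant full-length enzymes pre-incubated 2 h at room temperature with compounds (11-point 1:3 dilutions, typically 50,000–0.85 nM), then started with ATP/PI(4,5)P2 diC8 and run 60 min at room temperature in 40 mM HEPES pH 7.5, 20 mM NaCl, 25 mM MgCl2, 0.01% Triton X-100. ADP detected by TR-FRET 665/615 ratio; IC50 from four-parameter fit of percent of control.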
(TR-FRET usually uses a lanthanide donor and a delayed reading to cut background.)

The subject of test [1] is T47D (PI3Kα-H1047R) cell line. As to the kind of experiment: HTRF phospho-AKT(S473) cell assay in T47D cells. Type of test: cell-based, human. As to conditions: Homo sapiens; T47D (PI3Kα-H1047R) cells, HTRF phospho-AKT(S473), 2 hours compound incubation. In a few lines: (§2)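 pAKT(S473) in lysates read by HTRF after a 2 h, 37 °C compound exposure (12-point 1:3 series, max 0.5% DMSO). SKBR3 (wild type, top 10 μM) received 70 ng/ml PDGF-BB during the final 15 min; T47D (H1047R, top 5 μM) was unstimulated. IC50 values derived from the dose-response.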

Test [2] has as its system SKBR3 (PI3Kα-Wild Type) cell line. Nature of the test: HTRF phospho-AKT(S473) cell assay in SKBR3 cells. Type of test: cell-based, human. The conditions noted are these: Homo sapiens, SK-BR-3; SKBR3 (PI3Kα-Wild Type) cells, HTRF phospho-AKT(S473), 2 hours compound incubation, PDGF-BB stimulated. In a few lines: as §2
The target of a further test is PI3Kα H1047R (Homo sapiens, UniProt P42336, H1047R). Nature of the test: PI3Kα H1047R enzyme assay (Transcreener ADP2 TR-FRET Red Assay). Type of test: biochemical. As to conditions: purified recombinant full-length protein; 2 hours pre-incubation with compound. A digest of the protocol: as §1

Some results are limits rather than exact numbers.

Sequence of PI3Kα H1047R (P42336 whole entry H1047R): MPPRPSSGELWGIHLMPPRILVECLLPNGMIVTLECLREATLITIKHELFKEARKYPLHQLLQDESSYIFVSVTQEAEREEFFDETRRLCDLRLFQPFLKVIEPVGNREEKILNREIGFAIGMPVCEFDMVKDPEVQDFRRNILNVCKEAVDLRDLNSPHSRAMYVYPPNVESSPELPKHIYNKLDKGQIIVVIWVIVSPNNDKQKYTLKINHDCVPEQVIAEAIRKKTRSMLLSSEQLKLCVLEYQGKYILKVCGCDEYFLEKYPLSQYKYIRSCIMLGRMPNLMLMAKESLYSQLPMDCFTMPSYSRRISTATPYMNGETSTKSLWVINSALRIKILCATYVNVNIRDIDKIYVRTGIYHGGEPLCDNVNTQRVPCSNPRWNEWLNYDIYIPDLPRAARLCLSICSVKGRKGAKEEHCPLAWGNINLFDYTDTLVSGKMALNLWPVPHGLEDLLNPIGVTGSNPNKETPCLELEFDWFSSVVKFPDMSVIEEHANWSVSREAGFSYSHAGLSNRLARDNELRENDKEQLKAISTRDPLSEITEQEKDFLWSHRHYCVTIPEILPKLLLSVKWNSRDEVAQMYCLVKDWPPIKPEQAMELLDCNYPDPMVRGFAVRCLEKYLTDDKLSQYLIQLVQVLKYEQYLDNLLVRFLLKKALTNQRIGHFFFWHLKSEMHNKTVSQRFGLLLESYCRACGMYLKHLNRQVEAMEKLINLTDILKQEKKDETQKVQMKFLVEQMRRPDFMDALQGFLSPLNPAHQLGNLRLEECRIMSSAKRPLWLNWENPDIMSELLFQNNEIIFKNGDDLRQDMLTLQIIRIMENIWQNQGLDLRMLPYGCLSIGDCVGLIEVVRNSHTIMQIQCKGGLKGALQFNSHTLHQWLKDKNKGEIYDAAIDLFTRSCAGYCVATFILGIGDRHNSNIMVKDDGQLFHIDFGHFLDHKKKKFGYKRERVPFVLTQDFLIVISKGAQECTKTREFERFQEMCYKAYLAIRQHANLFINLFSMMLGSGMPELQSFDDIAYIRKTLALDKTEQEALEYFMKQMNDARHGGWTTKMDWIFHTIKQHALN
Sequence of PI3Kα H1047R (P27986 2-724 partner): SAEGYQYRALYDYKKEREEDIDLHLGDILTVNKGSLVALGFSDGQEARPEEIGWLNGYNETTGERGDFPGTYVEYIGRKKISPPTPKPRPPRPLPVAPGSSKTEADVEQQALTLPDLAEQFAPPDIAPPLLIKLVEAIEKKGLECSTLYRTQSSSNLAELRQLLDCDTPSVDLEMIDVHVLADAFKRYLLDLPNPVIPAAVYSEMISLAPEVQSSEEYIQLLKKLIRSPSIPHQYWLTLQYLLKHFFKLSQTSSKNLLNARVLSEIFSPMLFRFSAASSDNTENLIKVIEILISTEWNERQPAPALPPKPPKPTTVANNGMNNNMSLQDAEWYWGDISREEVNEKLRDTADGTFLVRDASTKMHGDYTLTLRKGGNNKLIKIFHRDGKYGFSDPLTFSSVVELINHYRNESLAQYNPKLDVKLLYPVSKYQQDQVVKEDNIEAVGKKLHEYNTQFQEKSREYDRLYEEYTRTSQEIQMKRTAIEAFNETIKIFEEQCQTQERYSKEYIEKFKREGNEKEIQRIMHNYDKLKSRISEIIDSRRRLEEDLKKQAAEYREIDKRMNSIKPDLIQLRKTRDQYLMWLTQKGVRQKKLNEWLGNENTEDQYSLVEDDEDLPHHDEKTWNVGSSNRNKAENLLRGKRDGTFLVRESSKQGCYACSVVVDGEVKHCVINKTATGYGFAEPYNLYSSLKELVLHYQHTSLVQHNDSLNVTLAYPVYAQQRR
Sequence of PI3Kα (P42336 whole entry): as the sequence (P42336 whole entry H1047R) above, with R1047H counted along it
Sequence of PI3Kα (P27986 2-724 partner): as the sequence (P27986 2-724 partner) above

Consider `Cc1cc([C@@H](C)Nc2ccc(F)cc2C(=O)NS(C)(=O)=O)c2nc(N3Cc4ccc(F)cc4C3)n(C)c(=O)c2c1` [Compound 63, (R)-5-fluoro-2-((1-(2-(5-fluoro-isoindolin-2-yl)-3,6-dimethyl-4-oxo-3,4-dihydroquinazolin-8-yl)ethyl)amino)-N-(methylsulfonyl) benzamide], for which the IC50 at PI3Kα was at least 1 µM; in test [1], 1 to 5 µM; in test [2] it was 1 to 5 µM; at PI3Kα H1047R, at least 1 µM.

Turning to `Cc1cc([C@@H](C)Nc2ccc(Cl)cc2C(=O)NS(C)(=O)=O)c2nc(N3Cc4ccc(F)cc4C3)n(C)c(=O)c2c1` [Compound 64, (R)-5-chloro-2-((1-(2-(5-fluoro-isoindolin-2-yl)-3,6-dimethyl-4-oxo-3,4-dihydroquinazolin-8-yl)ethyl)amino)-N-(methylsulfonyl) benzamide], the IC50 at PI3Kα was at least 1 µM; in test [1], 1 to 5 µM; in test [2], 1 to 5 µM; on PI3Kα H1047R it was at least 1 µM.

Turning to `COc1ccc(N[C@H](C)c2cc(C)cc3c(=O)n(C)c(N4Cc5ccc(F)cc5C4)nc23)c(C(=O)NS(C)(=O)=O)n1` [Compound 65, (R)-3-((1-(2-(5-fluoroisoindolin-2-yl)-3,6-dimethyl-4-oxo-3,4-dihydro-quinazolin-8-yl)ethyl)amino)-6-methoxy-N-(methylsulfonyl) picolinamide], the IC50 was at least 1 µM at PI3Kα, 0.5 to 1 µM in test [1], 1 to 5 µM in test [2] and at least 1 µM at PI3Kα H1047R.

For `C[C@@H](Nc1ccc(Cl)nc1C(=O)NS(C)(=O)=O)c1cc(F)cc2c(=O)n(C)c(N3Cc4ccc(F)cc4C3)nc12` [Compound 66, (R)-6-chloro-3-((1-(6-fluoro-2-(5-fluoroisoindolin-2-yl)-3-methyl-4-oxo-3,4-dihydroquinazolin-8-yl)ethyl)amino)-N-(methylsulfonyl) picolinamide], the 50% inhibitory concentration (IC50) on PI3Kα was below 0.1 µM; in test [1] it was 0.25 to 0.5 µM; in test [2], 1 to 5 µM; on PI3Kα H1047R, 0.1 to 0.25 µM.

On to `Cc1cc([C@@H](C)Nc2ccc(Cl)nc2C(=O)NS(=O)(=O)N(C)C)c2nc(N3Cc4ccc(F)cc4C3)n(C)c(=O)c2c1` [Compound 67, (R)-6-chloro-N-(N,N-dimethyl-sulfamoyl)-3-((1-(2-(5-fluoro-isoindolin-2-yl)-3,6-dimethyl-4-oxo-3,4-dihydroquinazolin-8-yl)ethyl)amino)picolinamide], for which the IC50 on PI3Kα is at least 1 µM; in test [1] it was 0.5 to 1 µM; in test [2], at least 5 µM; at PI3Kα H1047R, at least 1 µM.

Consider `Cc1cc([C@@H](C)Nc2cc(F)cnc2C(=O)NS(C)(=O)=O)c2nc(N3Cc4ccc(F)cc4C3)n(C)c(=O)c2c1` [Compound 68, (R)-5-fluoro-3-((1-(2-(5-fluoro-isoindolin-2-yl)-3,6-dimethyl-4-oxo-3,4-dihydroquinazolin-8-yl)ethyl)amino)-N-(methylsulfonyl) picolinamide], for which the 50% inhibitory concentration (IC50) at PI3Kα is at least 1 µM; in test [1], 1 to 5 µM; in test [2], at least 5 µM; at PI3Kα H1047R, at least 1 µM.

For the molecule `Cc1cc([C@@H](C)Nc2cc(C)c(F)nc2C(=O)NS(C)(=O)=O)c2nc(N3Cc4ccc(F)cc4C3)n(C)c(=O)c2c1` [Compound 69, (R)-6-fluoro-3-((1-(2-(5-fluoro-isoindolin-2-yl)-3,6-dimethyl-4-oxo-3,4-dihydroquinazolin-8-yl)ethyl)amino)-5-methyl-N-(methylsulfonyl)picolinamide], the IC50 was at least 1 µM at PI3Kα, 1 to 5 µM in test [1], at least 5 µM in test [2] and at least 1 µM on PI3Kα H1047R.

Take `CNC(=O)NS(=O)(=O)c1nc(Cl)ccc1N[C@H](C)c1cc(C)cc2c(=O)n(C)c(N3Cc4ccc(F)cc4C3)nc12` [Compound 70, (R)-6-chloro-3-((1-(2-(5-fluoro-isoindolin-2-yl)-3,6-dimethyl-4-oxo-3,4-dihydroquinazolin-8-yl)ethyl)amino)-N-(methylcarb-amoyl)pyridine-2-sulfonamide]: the IC50 was at least 1 µM on PI3Kα, 1 to 5 µM in test [1], at least 5 µM in test [2] and 0.25 to 0.5 µM on PI3Kα H1047R.

Regarding `Cc1cc([C@@H](C)Nc2ccc(Cl)nc2S(=O)(=O)NC(=O)N(C)C)c2nc(N3Cc4ccc(F)cc4C3)n(C)c(=O)c2c1` [Compound 71, (R)-6-chloro-N-(dimethylcarb-amoyl)-3-((1-(2-(5-fluoroisoindolin-2-yl)-3,6-dimethyl-4-oxo-3,4-dihydroquinazolin-8-yl)ethyl)amino)pyridine-2-sulfonamide], the 50% inhibitory concentration (IC50) was at least 1 µM at PI3Kα, 1 to 5 µM in test [1], at least 5 µM in test [2] and at least 1 µM at PI3Kα H1047R.

Turning to `Cc1cc2c(=O)n(C)c(N3Cc4ccc(F)cc4C3)nc2c([C@@H](C)Nc2ccc(Cl)nc2C(=O)NS(C)(=O)=O)n1` [Compound 72, (R)-6-chloro-3-((1-(2-(5-fluoroisoindolin-2-yl)-3,6-dimethyl-4-oxo-3,4-dihydro-pyrido[3,4-d]pyrimidin-8-yl)ethyl)amino)-N-(methylsulfonyl)picolinamide], the IC50 on PI3Kα is at least 1 µM; in test [1] it was 0.25 to 0.5 µM; in test [2], 1 to 5 µM; on PI3Kα H1047R it was 0.1 to 0.25 µM.

Consider `CNS(=O)(=O)NC(=O)c1nc(Cl)ccc1N[C@H](C)c1cc(C)cc2c(=O)n(C)c(N3Cc4ccc(F)cc4C3)nc12` [Compound 73, (R)-6-chloro-3-((1-(2-(5-fluoroisoindolin-2-yl)-3,6-dimethyl-4-oxo-3,4-dihydroquinazolin-8-yl)ethyl)amino)-N-(N-methyl-sulfamoyl)picolinamide], for which the IC50 was at least 1 µM on PI3Kα, below 0.25 µM in test [1], 1 to 5 µM in test [2] and 0.25 to 0.5 µM on PI3Kα H1047R.

For the molecule `CC(=O)NS(=O)(=O)c1nc(Cl)ccc1N[C@H](C)c1cc(C)cc2c(=O)n(C)c(N3Cc4ccc(F)cc4C3)nc12` [Compound 74, (R)—N-((6-chloro-3-((1-(2-(5-fluoroisoindolin-2-yl)-3,6-dimethyl-4-oxo-3,4-dihydroquinazolin-8-yl)ethyl)amino)pyridin-2-yl)sulfonyl)acetamide], the IC50 at PI3Kα is at least 1 µM; in test [1] it was 0.25 to 0.5 µM; in test [2], at least 5 µM; on PI3Kα H1047R it was 0.1 to 0.25 µM.

As to `Cc1cc([C@@H](C)Nc2ccccc2S(=O)(=O)NC(=O)C(F)F)c2nc(N3Cc4ccc(F)cc4C3)n(C)c(=O)c2c1` [Compound 75, (R)-2,2-difluoro-N-((2-((1-(2-(5-fluoroisoindolin-2-yl)-3,6-dimethyl-4-oxo-3,4-dihydroquinazolin-8-yl)ethyl)amino)phenyl)sulfonyl)acetamide], the 50% inhibitory concentration (IC50) is at least 1 µM at PI3Kα, 1 to 5 µM in test [1], at least 5 µM in test [2] and at least 1 µM on PI3Kα H1047R.

Take `Cc1cc([C@@H](C)Nc2ccc(Cl)nc2S(N)(=O)=O)c2nc(N3Cc4ccc(F)cc4C3)n(C)c(=O)c2c1` [Compound 76, (R)-6-chloro-3-((1-(2-(5-fluoroisoindolin-2-yl)-3,6-dimethyl-4-oxo-3,4-dihydroquinazolin-8-yl)ethyl)amino)pyridine-2-sulfonamide]: the IC50 at PI3Kα was at least 1 µM; in test [1] it was 0.25 to 0.5 µM; in test [2], 1 to 5 µM; at PI3Kα H1047R, below 0.1 µM.

With `CC(=O)NS(=O)(=O)c1nc(Cl)ccc1N[C@H](C)c1cc(F)cc2c(=O)n(C)c(N3CCC(F)(F)CC3)nc12` [Compound 77, (R)-N-((6-chloro-3-((1-(2-(4,4-difluoropiperidin-1-yl)-6-fluoro-3-methyl-4-oxo-3,4-dihydroquinazolin-8-yl)ethyl)amino)pyridin-2-yl)sulfonyl)acetamide], the half-maximal inhibitory concentration (IC50) on PI3Kα is at least 1 µM; in test [1], 1 to 5 µM; in test [2], at least 5 µM; at PI3Kα H1047R, at least 1 µM.

Regarding `CC(=O)NS(=O)(=O)c1nc(Cl)ccc1N[C@H](C)c1cc(C)cc2c(=O)n(C)c(N3CCC(F)(F)CC3)nc12` [Compound 78, (R)-N-((6-chloro-3-((1-(2-(4,4-difluoropiperidin-1-yl)-3,6-dimethyl-4-oxo-3,4-dihydroquinazolin-8-yl)ethyl)amino)pyridin-2-yl)sulfonyl)acetamide], the IC50 at PI3Kα was at least 1 µM; in test [1], 0.25 to 0.5 µM; in test [2], 1 to 5 µM; on PI3Kα H1047R, 0.5 to 1 µM.

Consider `Cc1cc([C@@H](C)Nc2ccc(Cl)nc2S(=O)(=O)NC(=O)C2CC2)c2nc(N3Cc4ccc(F)cc4C3)n(C)c(=O)c2c1` [Compound 79, (R)-N-((6-chloro-3-((1-(2-(5-fluoroisoindolin-2-yl)-3,6-dimethyl-4-oxo-3,4-dihydroquinazolin-8-yl)ethyl)amino)pyridin-2-yl)sulfonyl)cyclopropane-carboxamide], for which the half-inhibitory concentration (IC50) is at least 1 µM at PI3Kα, 0.25 to 0.5 µM in test [1], at least 5 µM in test [2] and 0.1 to 0.25 µM at PI3Kα H1047R.
